The source of these data is US11667643B2, “RIP1K inhibitors” (priority 2020, dated 2023).

Read-outs that look alike come from different tables or passages of the source.

One test relates to L929 cells. Nature of the test: L929 cell necroptosis assay (TNFa + zVAD, CellTiter-Glo recovery), functional murine RIP1 assay. It is filed as cell-based. The protocol:
(§1) In this example, U937 and L929 cells were exposed to compounds of the present disclosure and a cell necroptosis assay was conducted to evaluate compound activity in functional human RIP1 and murine RIP1 assays.
(§2) U937 and L929 cells were obtained from the American Type Culture Collection (Manassa, Va., USA). Both cells were maintained in logarithmic growth phase in complete RPMI 1640 media (Sigma, ST Louis, Mo., USA) supplemented with 10% fetal bovine serum (Sigma, ST Louis, Mo., USA) at 37° C. with 5% CO2. For necroptosis assay, L929 cells were plated for 18 h in 100 μL/well medium at 10K cells/well in Costar 96-well black clear-bottom plates (Fisher Scientific, Hampton, N.H., USA); U937 cells were plated on the day of the assay in 50 μL/well medium containing 60 uM zVAD-fmk (Lonza, Basel, Switzerland) at 50K cells/well. Medium from L929 cells were removed from the 96-well plates and replaced with 50 μL/well new medium containing 40 uM zVAD-fmk. Each compound of the present disclosure evaluated in this example was serially diluted in DMSO from 2.5 mM in 4-fold dilutions, and then diluted 1:125 in complete medium. 50 μL/well 2× of the compound was then added to the cells in the plates. The cells were pre-incubated with the compound for 1 hour at 37° C. with 5% CO2 and before addition of 10 μL/well 11×TNFa (Peprotech, Rocky Hill, N.J., USA) to give a final concentration of 2 ng/mL for TNFa. The relative amount of necroptosis cells was determined by luminescent using a Wallac Victor2 Luminometer (PerkinElmer, Waltham, Mass., USA) and a CellTiter-Glo® Luminescent Cell Viability Reagent Assay (Promega, Madison, Wis., USA) added per manufacturer instructions after 18 hours of TNFa stimulation at 37° C. with 5% CO2. This example establishes that embodiments of the compounds described herein have unexpectedly potent activity against human RIP1 and murine RIP1, which allows their assessment in in vivo mouse models of disease.

In the next test the test system is U937 cells. As to the kind of experiment: U937 cell necroptosis assay (TNFa + zVAD, CellTiter-Glo recovery), functional human RIP1 assay. It is filed as cell-based. On the procedure: as §1, §2
In a further test the target is RIPK1 (Homo sapiens (Human), UniProt Q13546). Nature of the test: biochemical. It counts as biochemical. The note with it: RIPK1 enzyme 31 ng/well, 30° C. for 30 minutes, luminescence; read-out: RIPK1 ADP-Glo Kinase (IC50). The protocol: In this example, compounds of the disclosure were evaluated using a biochemical assay using the ADP-Glo™ technology.
ADP-Glo™ (Promega, Madison, Wis., USA) reagents were thawed at ambient temperature. Kinase Detection Reagent was prepared by mixing kinase detection buffer with the lyophilized kinase detection substrate.
A […] stock volume of 5× Reaction Kinase Buffer was made by mixing 1000 μl of 1M MgCl2, 500 μl of 1M Tris-HCL pH7.4, 0.5 mg/ml (25 mg) of BSA, and 3475 μl of distilled H2O. A 3 ml 2× working stock volume of Reaction Kinase Buffer was made containing a final concentration of 100 μM DTT and 4 mM MnCl2.
Components of RIPK1 enzyme (Rigel Pharmaceuticals, South San Francisco, Calif., USA) were thawed on ice. Diluted RIPK1 was prepared in 1× Kinase Reaction Buffer (diluted from 2× buffer) to 31 ng/well.
1.0 ul of diluted compound was added to a 384 well plate in duplicate. […] The final reaction volume was 5.0 μl. The plate was quickly centrifuged and the reaction was incubated at 30° C. for 30 minutes. Adding 5 μl of ADP-Glo™ terminated the reaction. The plate was quickly centrifuged and the reaction was incubated at room temperature for 40 minutes. Kinase Detection Reagent was then added and incubated at room temperature for 30 minutes. The relative light unit (RLU) of kinase reaction was determined by luminescent (Luminescence 0.1 s) using a Wallac Victor2 Luminometer (PerkinElmer, Waltham, Mass., USA).
In general terms: ADP-Glo first removes unused ATP, then detects ADP through luciferase.

Where [1] appears, read: Mus musculus, L929, 18 h, read-out: L929-CTG-recovery, L929, TNFa + zVAD (IC50), L929 cells, zVAD-fmk, TNFa 2 ng/mL, 18 hours, CellTiter-Glo.
Where [2] appears, read: Homo sapiens, U-937, 18 h, read-out: U937 Zvad TNF CTG Recovery, U937, TNFa + zVAD (IC50), U937 cells, zVAD-fmk, TNFa 2 ng/mL, 18 hours, CellTiter-Glo.
Where [3] appears, read: read-out: L929-CTG-recovery, L929, TNFa + zVAD (IC50), L929 cells, zVAD-fmk, TNFa 2 ng/mL, 18 hours, CellTiter-Glo.
The mark [4] stands for this setting: read-out: U937 Zvad TNF CTG Recovery, U937, TNFa + zVAD (IC50), U937 cells, zVAD-fmk, TNFa 2 ng/mL, 18 hours, CellTiter-Glo.

Chain of RIPK1 (Q13546 whole entry, species assumed): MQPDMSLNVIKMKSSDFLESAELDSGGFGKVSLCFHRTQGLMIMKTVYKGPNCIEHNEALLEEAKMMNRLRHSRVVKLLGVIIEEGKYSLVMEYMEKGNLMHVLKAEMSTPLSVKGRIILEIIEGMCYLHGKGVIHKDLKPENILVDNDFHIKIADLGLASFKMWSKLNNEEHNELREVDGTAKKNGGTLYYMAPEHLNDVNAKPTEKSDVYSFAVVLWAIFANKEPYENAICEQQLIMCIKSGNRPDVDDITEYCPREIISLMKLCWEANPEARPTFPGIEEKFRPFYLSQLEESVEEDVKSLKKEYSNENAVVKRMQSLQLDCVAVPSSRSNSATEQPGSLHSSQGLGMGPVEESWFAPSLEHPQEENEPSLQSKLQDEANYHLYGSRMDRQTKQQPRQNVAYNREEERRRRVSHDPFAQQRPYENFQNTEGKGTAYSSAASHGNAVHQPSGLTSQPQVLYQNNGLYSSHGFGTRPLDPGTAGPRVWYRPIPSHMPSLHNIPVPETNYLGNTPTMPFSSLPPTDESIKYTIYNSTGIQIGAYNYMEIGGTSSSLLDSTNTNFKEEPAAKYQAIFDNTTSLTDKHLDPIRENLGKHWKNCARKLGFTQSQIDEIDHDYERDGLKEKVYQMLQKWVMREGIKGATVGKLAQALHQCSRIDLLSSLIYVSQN

Take `O=C(NC1CCc2ccccc2-n2ccnc21)c1n[nH]c(Cc2ccccc2)n1` (racemic) [Compound I-1, (±)-5-Benzyl-N-(5,6-dihydro-4H-benzo[f]imidazo[1,2-a]azepin-4-yl)-1H-1,2,4-triazole-3-carboxamide]: the IC50 with L929 cells (setting [1]) stood at 10000 µM; with U937 cells (setting [2]), 0.376 µM.

For `O=C(NC1CCc2ccccc2-n2ccnc21)c1nccc(-c2ccccc2)n1` (racemic) [Compound I-2, (±)-N-(5,6-Dihydro-4H-benzo[f]imidazo[1,2-a]azepin-4-yl)-4-phenylpyrimidine-2-carboxamide], the IC50 at RIPK1 came to 6.23 µM; in the test with L929 cells (setting [1]), 10000 µM; in the test on U937 cells (setting [2]), 40.3 µM.

As to `O=C(NC1CCc2ccccc2-n2ccnc21)c1ncnn1Cc1c(Cl)cccc1Cl` (racemic) [Compound I-6, (±)-1-(2,6-Dichlorobenzyl)-N-(5,6-dihydro-4H-benzo[f]imidazo[1,2-a]azepin-4-yl)-1H-1,2,4-triazole-5-carboxamide], the IC50 in the test on L929 cells (setting [1]) turned out to be 10000 µM; in the test on U937 cells (setting [2]), 885 µM.

For `O=C(NC1CCc2ccccc2-n2ccnc21)c1ncn(Cc2c(Cl)cccc2Cl)n1` (racemic) [Compound I-7, (±)-1-(2,6-dichlorobenzyl)-N-(5,6-dihydro-4H-benzo[f]imidazo[1,2-a]azepin-4-yl)-1H-1,2,4-triazole-3-carboxamide], the IC50 with L929 cells (setting [1]) came to 12.7 µM; in the test on U937 cells (setting [2]), 0.0137 µM.

Regarding `O=C(NC1CCc2ccccc2-n2ccnc21)c1cc(Cc2ccccc2)on1` (racemic) [Compound I-9, (±)-5-Benzyl-N-(5,6-dihydro-4H-benzo[f]imidazo[1,2-a]azepin-4-yl)isoxazole-3-carboxamide], the IC50 at RIPK1 is 0.0261 µM; with L929 cells (setting [1]), 10000 µM; with U937 cells (setting [2]) it was 0.222 µM.

Regarding `O=C(NC1CCc2ccccc2-n2ccnc21)c1ncn(Cc2ccccc2F)n1` (racemic) [Compound I-14, (±)-N-(5,6-Dihydro-4H-benzo[f]imidazo[1,2-a]azepin-4-yl)-1-(2-fluorobenzyl)-1H-1,2,4-triazole-3-carboxamide], the IC50 on RIPK1 stood at 0.0166 µM; in the test with L929 cells (setting [1]), 2.34 µM; with U937 cells (setting [2]) it was 0.0066 µM.

As to `Cc1cnc2n1-c1ccccc1CCC2NC(=O)c1n[nH]c(Cc2ccccc2)n1` (racemic) [Compound I-40, (±)-5-Benzyl-N-(1-methyl-5,6-dihydro-4H-benzo[f]imidazo[1,2-a]azepin-4-yl)-1H-1,2,4-triazole-3-carboxamide], the IC50 in the test with L929 cells (setting [1]) and with U937 cells (setting [2]) was 10000 µM throughout.

Take `CC(C)(O)C#Cc1ccc2c(c1)-n1ccnc1C(NC(=O)c1n[nH]c(Cc3ccccc3)n1)CC2` (racemic) [Compound I-55, (±)-5-Benzyl-N-(9-(3-hydroxy-3-methylbut-1-yn-1-yl)-5,6-dihydro-4H-benzo[f]imidazo[1,2-a]azepin-4-yl)-1H-1,2,4-triazole-3-carboxamide]: the IC50 amounted to 9.5 µM in the test with L929 cells (setting [1]) and 0.0206 µM with U937 cells (setting [2]).

For the compound `O=C(NC1CCc2ccccc2-n2c1nc(Cl)c2Cl)c1cc(Cc2ccccc2)on1` (racemic) [Compound I-70, (±)-5-Benzyl-N-(1,2-dichloro-5,6-dihydro-4H-benzo[f]imidazo[1,2-a]azepin-4-yl)isoxazole-3-carboxamide], the results for the IC50 in the test on L929 cells (setting [1]) and in the test on U937 cells (setting [2]) were 10000 µM and 73.4 µM, respectively.

`CC(C)(O)C#Cc1ccc2c(c1)-n1ccnc1C(NC(=O)c1n[nH]c(Cc3ccccc3)n1)CO2` (racemic) [Compound I-90, (±)-5-Benzyl-N-(9-(3-hydroxy-3-methylbut-1-yn-1-yl)-4,5-dihydrobenzo[b]imidazo[1,2-d][1,4]oxazepin-4-yl)-1H-1,2,4-triazole-3-carboxamide]: the IC50 in the test with L929 cells (setting [1]) was determined as 10000 µM; in the test with U937 cells (setting [2]), 0.17 µM.

Consider `O=C(NC1CCc2ccccc2-n2ccnc21)c1n[nH]c(Cc2ccccc2)n1` (single isomer, unassigned) [Compound I-4], for which the IC50 in the test with L929 cells (setting [3]) was found to be 10000 µM; in the test with U937 cells (setting [4]), 0.203 µM.

For the compound `O=C(NC1CCc2ccccc2-n2ccnc21)c1n[nH]c(Cc2ccccc2)n1` (single isomer, unassigned) [Compound I-5], the IC50 was found to be 10000 µM in the test on L929 cells (setting [1]) and 86.6 µM with U937 cells (setting [4]).

`O=C(NC1CCc2ccccc2-n2ccnc21)c1ncn(Cc2c(Cl)cccc2Cl)n1` (single isomer, unassigned) [Compound I-12]: the IC50 in the test with L929 cells (setting [3]) amounted to 10000 µM; in the test with U937 cells (setting [4]), 17 µM.

In the case of `O=C(NC1CCc2ccccc2-n2ccnc21)c1ncn(Cc2c(Cl)cccc2Cl)n1` (single isomer, unassigned) [Compound I-13], the IC50 is 3.38 µM in the test on L929 cells (setting [3]) and 0.003 µM in the test on U937 cells (setting [4]).

Consider `CC(C)(O)C#Cc1ccc2c(c1)-n1ccnc1C(NC(=O)c1n[nH]c(Cc3ccccc3)n1)CO2` (single isomer, unassigned) [Compound I-92], for which the IC50 in the test with L929 cells (setting [1]) is 6 µM; in the test on U937 cells (setting [2]), 0.0676 µM.

Consider `O=C(N[C@H]1COc2ccccc2-n2nnnc21)c1ncnn1Cc1c(Cl)cccc1Cl` [Compound I-10, (R)-1-(2,6-Dichlorobenzyl)-N-(4,5-dihydrobenzo[6]tetrazolo[1,5-d][1,4]oxazepin-4-yl)-1H-1,2,4-triazole-5-carboxamide], for which the IC50 is 10000 µM in the test with L929 cells (setting [1]) and 5020 µM in the test with U937 cells (setting [2]).

Take `Cc1cccc(C)c1Cn1cnc(C(=O)N[C@H]2COc3ccccc3-n3nnnc32)n1` [Compound I-20, (R)—N-(4,5-Dihydrobenzo[&]tetrazolo[1,5-d][1,4]oxazepin-4-yl)-1-(2,6-dimethylbenzyl)-1H-1,2,4-triazole-3-carboxamide]: the figures for the IC50 at RIPK1 and in the test with U937 cells (setting [2]) were 1.87 µM and 1.56 µM, respectively.

With `CC(C)(O)C#Cc1ccc2c(c1)-n1nnnc1[C@@H](NC(=O)c1cc(O)n(Cc3ccccc3)n1)CO2` [Compound I-76, (R)-1-Benzyl-5-hydroxy-N-(9-(3-hydroxy-3-methylbut-1-yn-1-yl)-4,5-dihydrobenzo[b]tetrazolo[1,5-d][1,4]oxazepin-4-yl)-1H-pyrazole-3-carboxamide], the IC50 with L929 cells (setting [1]) and in the test on U937 cells (setting [2]) was 10000 µM each time.

Turning to `CN1C(=O)[C@@H](N2CCc3c(nn(Cc4ccccc4)c3Cl)C2=O)COc2cc(C#CC(C)(C)O)ccc21` [Compound I-78], the IC50 in the test with L929 cells (setting [1]) stood at 0.0061 µM; in the test with U937 cells (setting [2]), 0.0022 µM.

`CC(C)(O)C#Cc1ccc2c(c1)-n1ccnc1[C@@H](NC(=O)c1n[nH]c(Cc3ccccc3)n1)CC2` [Compound I-82, (S)-5-Benzyl-N-(9-(3-hydroxy-3-methylbut-1-yn-1-yl)-5,6-dihydro-4H-benzo[f]imidazo[1,2-a]azepin-4-yl)-1H-1,2,4-triazole-3-carboxamide]: the IC50 in the test on L929 cells (setting [1]) amounted to 5.29 µM; with U937 cells (setting [2]), 0.0084 µM.

Regarding `CC(C)(O)C#Cc1ccc2c(c1)-n1ccnc1[C@H](NC(=O)c1n[nH]c(Cc3ccccc3)n1)CO2` [Compound I-91, (S)-5-Benzyl-N-(9-(3-hydroxy-3-methylbut-1-yn-1-yl)-4,5-dihydrobenzo[b]imidazo[1,2-d][1,4]oxazepin-4-yl)-1H-1,2,4-triazole-3-carboxamide], the IC50 with L929 cells (setting [1]) and in the test on U937 cells (setting [2]) was 10000 µM each time.
